Our source for the tyrosinase inhibitory activities and melting point values is patent publication US9896421B2, “Compound having skin-whitening, anti-oxidizing and PPAR activities and medical use thereof” (Pusan National University Industry-University Cooperation …, priority 2011, dated 2018).

The first data set has as its system Mushroom-derived tyrosinase. Kind of data set: Tyrosinase inhibitory effect. It is filed as biochemical. The settings on record: 1 mM L-tyrosin, pH 6.5, 25° C., 30 minutes, OD492; compared with kojic acid (positive control); FIGS. 4 to 6. The method, then:
Mushroom-derived tyrosinase was sued as an enzyme source in the present experiment. Tyrosinase activities were assayed according to a slightly-modified conventionally known method (Life Sci., 1999, 65, 241-246). In detail, 20 μl of a mushroom-derived tyrosinase (1000 units) aqueous solution was added to 96-well microplate (Nunc, Denmark) to prepare 200 μl of the total volume of assay mixture containing 1 mM L-tyrosin solution and 50 mM phosphate buffer solution (pH 6.5). The assay mixture was cultured at a temperature of 25° C. for 30 minutes. After the culturing, an amount of the produced DOPA chrome in the reaction mixture was measured by using a microplate reader (Hewlett Packard) at 492 nm (OD492).
Turning to `O=C1NC(=O)/C(=C/c2ccc(O)cc2)S1` [Compound 1, (Z)-5-(4-hydroxybenzylidene)thiazolidine-2,4-dione], the tyrosinase inhibitory activities result is on record as “better tyrosinase inhibitory activities than a kojic acid”. Take `COc1ccc(/C=C2\SC(=O)NC2=O)cc1O` [Compound 6, (Z)-5-(3-hydroxy-4-methoxybenzylidene)thiazolidine-2,4-dione]: the tyrosinase inhibitory activities result was “better tyrosinase inhibitory activities than a kojic acid”.

In the case of `O=C1NC(=O)C(=Cc2ccc(O)cc2O)C(=O)N1` [Compound 16, 5-(2,4-dihyroxybenzylidene)pyrimidine-2,4,6(1H,3H,5H)-trione], the tyrosinase inhibitory activities result was “better tyrosinase inhibitory activities than a kojic acid”. As for `COc1ccc(/C=C2\NC(=O)NC2=O)cc1O` [Compound 29, (Z)-5-(3-hydroxy-4-methoxybenzylidene)imidazolidine-2,4-dione], the tyrosinase inhibitory activities result is on record as “better tyrosinase inhibitory activities than a kojic acid”. On to `O=C1C/C(=C\c2ccc(O)cc2)C(=O)N1` [Compound 36, (E)-3-(4-hydroxybenzylidene)pyrrolidine-2,5-dione], for which the tyrosinase inhibitory activities result is recorded as “better tyrosinase inhibitory activities than a kojic acid”. Same read-out and setting: the same measure for `O=C1C/C(=C\c2ccc(O)cc2O)C(=O)N1` [Compound 38, (E)-3-(2,4-dihydroxybenzylidene)pyrrolidine-2,5-dione]: “better tyrosinase inhibitory activities than a kojic acid”; for `COc1ccc(/C=C2\CC(=O)NC2=O)cc1O` [Compound 41, (E)-3-(3-hydroxy-4-methoxybenzylidene)pyrrolidine-2,5-dione]: “better tyrosinase inhibitory activities than a kojic acid”; for `COc1ccc(/C=C2\SC(=S)NC2=O)cc1O` [Compound 66, (Z)-5-(3-hydroxy-4-methoxybenzylidene)-2-thioxothiazolidin-4-one]: “better tyrosinase inhibitory activities than a kojic acid”. On the same count and under the same terms, the value for `COc1ccc(/C=C2\NC(=S)NC2=O)cc1O` [Compound 103, (Z)-5-(3-hydroxy-4-methoxybenzylidene)-2-thioxoimidazolidin-4-one] was “better tyrosinase inhibitory activities than a kojic acid”; that for `[H]/N=C1/NC(=O)C(=Cc2ccc(OC)c(O)c2)S1` [Compound 115, (Z)-5-(3-hydroxy-4-methoxybenzylidene)-2-iminothiazolidin-4-one] was “better tyrosinase inhibitory activities than a kojic acid”; that for `O=C1NC(=O)C(=Cc2ccc(OCc3ccccc3)cc2)C(=O)N1` [Compound 123, 5-(4-(benzyloxy)benzylidene)pyrimidine-2,4,6(1H,3H,5H)-trione] was “better tyrosinase inhibitory activities than a kojic acid”.

System in the next data set: not given
Test: not given
Conditions: not given
In general, melting point refers to the temperature of the solid-liquid transition. Compound `COc1ccc(/C=C2\SC(=O)NC2=O)cc1O` [Compound 6, (Z)-5-(3-hydroxy-4-methoxybenzylidene)thiazolidine-2,4-dione] yielded a melting point of 254 to 257.6 °C. In turn, `COc1ccc(/C=C2\NC(=O)NC2=O)cc1O` [Compound 29, (Z)-5-(3-hydroxy-4-methoxybenzylidene)imidazolidine-2,4-dione] registered a melting point of 250.7 to 253.4 °C. In turn, `O=C1C/C(=C\c2ccc(O)cc2)C(=O)N1` [Compound 36, (E)-3-(4-hydroxybenzylidene)pyrrolidine-2,5-dione] showed a melting point of over 300 °C.

The compound `O=C1C/C(=C\c2ccc(O)cc2O)C(=O)N1` [Compound 38, (E)-3-(2,4-dihydroxybenzylidene)pyrrolidine-2,5-dione] gave a melting point of over 300 °C. As to `COc1ccc(/C=C2\CC(=O)NC2=O)cc1O` [Compound 41, (E)-3-(3-hydroxy-4-methoxybenzylidene)pyrrolidine-2,5-dione], the melting point was 268.7 to 270.3 °C. Turning to `O=C1C/C(=C\c2cc(O)cc(O)c2)C(=O)N1` [Compound 44, (E)-3-(3,5-dihydroxybenzylidene)pyrrolidine-2,5-dione], the melting point was 275.2 to 277.8 °C.

On to `COc1ccc(/C=C2\CC(=O)NC2=O)c(OC)c1` [Compound 45, (E)-3-(2,4-dimethoxybenzylidene)pyrrolidine-2,5-dione], for which the melting point was in the range of 245.7 to 246.6 °C. In turn, `O=C1C/C(=C\c2ccccc2O)C(=O)N1` [Compound 46, (E)-3-(2-hydroxybenzylidene)pyrrolidine-2,5-dione] gave a melting point of 271.3 to 272.1 °C. Regarding `COc1cc(/C=C2\CC(=O)NC2=O)cc(OC)c1OC` [Compound 47, (E)-3-(3,4,5-trimethoxybenzylidene)pyrrolidine-2,5-dione], the melting point fell in the range of 191.2 to 193.6 °C.

`COc1cc(/C=C2\CC(=O)NC2=O)cc(OC)c1O` [Compound 48, (E)-3-(4-hydroxy-3,5-dimethoxybenzylidene)pyrrolidine-2,5-dione] registered a melting point of 236.7 to 237.7 °C. `COc1ccc(/C=C2\SC(=S)NC2=O)cc1O` [Compound 66, (Z)-5-(3-hydroxy-4-methoxybenzylidene)-2-thioxothiazolidin-4-one]: the melting point lay within 210.2 to 212.5 °C. Regarding `COc1ccc(/C=C2\SC(=S)NC2=O)c(OC)c1` [Compound 70, (Z)-5-(2,4-dimethoxybenzylidene)-2-thioxothiazolidin-4-one], the melting point fell in the range of 272.7 to 275.2 °C. For `[H]/N=C1/NC(=O)C(=Cc2ccc(O)cc2)N1C` [Compound 74, (Z)-5-(4-hydroxybenzylidene)-2-imino-1-methylimidazolidin-4-one], the melting point lay within 285.9 to 288 °C. On to `[H]/N=C1/NC(=O)C(=Cc2ccc(O)c(OC)c2)N1C` [Compound 76, (Z)-5-(4-hydroxy-3-methoxybenzylidene)-2-imino-1-methylimidazolidin-4-one], for which the melting point fell in the range of 254.2 to 255.6 °C.

Turning to `[H]/N=C1/NC(=O)C(=Cc2ccc(O)c(OCC)c2)N1C` [Compound 77, (Z)-5-(3-ethoxy-4-hydroxybenzylidene)-2-imino-1-methylimidazolidin-4-one], the melting point fell in the range of 254.2 to 255.6 °C. Same read-out and setting: the same measure for `[H]/N=C1/NC(=O)C(=Cc2ccc(OC)c(O)c2)N1C` [Compound 78, (Z)-5-(3-hydroxy-4-methoxybenzylidene)-2-imino-1-methylimidazolidin-4-one]: 276.1 to 277.3 °C; for `COc1ccc(/C=C2/C(=O)NC(=N)N2C)cc1` [Compound 79, (Z)-2-Imino-5-(4-methoxybenzylidene)-1-methylimidazolidin-4-one]: 252.1 to 255 °C. `[H]/N=C1/NC(=O)C(=Cc2ccc(OC)c(OC)c2)N1C` [Compound 80, (Z)-5-(3,4-dimethoxybenzylidene)-2-imino-1-methylimidazolidin-4-one] returned a melting point of 257.1 to 259 °C.

On to `[H]/N=C1/NC(=O)C(=Cc2ccc(OC)cc2OC)N1C` [Compound 81, (Z)-5-(2,4-dimethoxybenzylidene)-2-imino-1-methylimidazolidin-4-one], for which the melting point fell in the range of 244.6 to 245.6 °C. On to `COc1ccc(/C=C2\NC(=S)NC2=O)cc1O` [Compound 103, (Z)-5-(3-hydroxy-4-methoxybenzylidene)-2-thioxoimidazolidin-4-one], for which the melting point was in the range of 279.6 to 282.2 °C. As for `COc1ccc(/C=C2\NC(=S)NC2=O)cc1` [Compound 104, (Z)-5-(4-methoxybenzylidene)-2-thioxoimidazolidin-4-one], the melting point was 266.9 to 267.5 °C. As to `COc1ccc(/C=C2\NC(=S)NC2=O)cc1OC` [Compound 105, (Z)-5-(3,4-dimethoxybenzylidene)-2-thioxoimidazolidin-4-one], the melting point fell in the range of 236.2 to 238 °C. The compound `COc1ccc(/C=C2\NC(=S)NC2=O)c(OC)c1` [Compound 107, (Z)-5-(2,4-dimethoxybenzylidene)-2-thioxoimidazolidin-4-one] yielded a melting point of 237.1 to 238.6 °C. In turn, `COc1cc(/C=C2\NC(=S)NC2=O)cc(OC)c1OC` [Compound 109, (Z)-2-thioxo-5-(3,4,5-trimethoxybenzylidene)imidazolidin-4-one] yielded a melting point of 264 to 266.6 °C. Same read-out and setting: the value for `[H]/N=C1/NC(=O)C(=Cc2ccc(O)c(O)c2)S1` [Compound 112, (Z)-5-(3,4-dihydroxybenzylidene)-2-iminothiazolidin-4-one] was over 300 °C; that for `[H]/N=C1/NC(=O)C(=Cc2ccc(OC)c(OC)c2)S1` [Compound 117, (Z)-5-(3,4-dimethoxybenzylidene)-2-iminothiazolidin-4-one] was 274.2 to 276.3 °C; that for `[H]/N=C1/NC(=O)C(=Cc2cc(O)cc(O)c2)S1` [Compound 118, (Z)-5-(3,5-dihydroxybenzylidene)-2-iminothiazolidin-4-one] was over 300 °C. For the compound `[H]/N=C1/NC(=O)C(=Cc2ccc(OC)cc2OC)S1` [Compound 119, (Z)-5-(2,4-dimethoxybenzylidene)-2-iminothiazolidin-4-one], the melting point is 249.1 to 250.7 °C. `[H]/N=C1/NC(=O)C(=Cc2ccccc2O)S1` [Compound 120, (Z)-5-(2-hydroxybenzylidene)-2-iminothiazolidin-4-one]: the melting point lay in the range of 210.1 to 211.5 °C. `COc1cc(/C=C2\SC(=N)NC2=O)cc(OC)c1OC` [Compound 121, (Z)-2-Imino-5-(3,4,5-trimethoxybenzylidene)thiazolidin-4-one] returned a melting point of 253.3 to 254.8 °C. Take `[H]/N=C1/NC(=O)C(=Cc2cc(OC)c(O)c(OC)c2)S1` [Compound 122, (Z)-5-(4-hydroxy-3,5-dimethoxybenzylidene)-2-iminothiazolidin-4-one]: the melting point fell in the range of 254.3 to 256.6 °C.

In turn, `COc1cc(/C=C2\NC(=O)NC2=O)cc(OC)c1O` [Compound 151, (Z)-5-(4-hydroxy-3,5-dimethoxybenzylidene)imidazolidine-2,4-dione] displayed a melting point of 266 to 268.5 °C.
